Key:
[1] = system: Drosophila model for Parkinson disease; assay: Flight assay in Drosophila model for Parkinson disease; assay type: in vivo
Protocol: Flight assays were conducted using male flies in batches of 5 flies each. Flies were placed in an empty vial (5 cm×10 cm), gently tapped and scored visually for their ability to fly. […] The combination of both treatments (e.g., Vitamin K2 and light) provided more than 50% restoration of the locomotor impairment.

[2] = system: Heixudian mutants; conditions: Drosophila Heixudian mutants; Vos et al., Science 2012; cited from earlier work

Question: Which “restoration of the locomotor impairment (flight capacity)” value ([1]; combination of Vitamin K2 and light (808 nm continuous laser diode, 100 s, 25 mW/cm2)) does the source give for `CC(C)=CCC/C(C)=C/CC/C(C)=C/CC/C(C)=C/CC1=C(C)C(=O)c2ccccc2C1=O` [Vitamin K2] here?
Answer: Its value is “more than 50%”.

Question: What about the “restored flight capability (animals able to fly)” value ([1]; systemic administration of Vitamin K2 alone, male flies, non-treated controls less than 15%) of the same compound?
Answer: Its value is “about 30%”.

Question: What about the severe mitochondria defects [2] of the same compound?
Answer: The severe mitochondria defects was “rescued”.
